US8629149B2, “Oxopiperazine derivatives for the treatment of pain and epilepsy” (Zalicus Pharmaceuticals Ltd., priority 2009, dated 2014)

Legend:
SNL L5/L6 rats = test: L5/L6 spinal nerve ligation (SNL) Chung pain model, tactile allodynia (von Frey); assay type: in vivo, rat; conditions: for Rat SNL tactile allodynia, anti-allodynia (statement): compared to baseline and post-SNL
Description: The Spinal Nerve Ligation is an animal model representing peripheral nerve injury generating a neuropathic pain syndrome. In this model experimental animals develop the clinical symptoms of tactile allodynia and hyperalgesia. L5/L6 Spinal nerve ligation (SNL) injury was induced using the procedure of Kim and Chung (Kim et al., Pain 50:355-363 (1992)) in male Sprague-Dawley rats (Harlan; Indianapolis, Ind.) weighing 200 to 250 grams.
Anaesthesia was induced with 2% isofluorane in O2 at 2 L/min and maintained with 0.5% isofluorane in O2. Rats were then shaved and aseptically prepared for surgeries. A 2 cm paraspinal incision was made at the level of L4-S2. L4/L5 was exposed by removing the transverse process above the nerves with a small rongeur. The L5 spinal nerve is the larger of the two visible nerves below the transverse process and lies closest to the spine. The L6 spinal nerve is located beneath the corner of the slope bone. A home-made glass Chung rod was used to hook L5 or L6 and a pre-made slip knot of 4.0 silk suture was placed on the tip of the rod just above the nerve and pulled underneath to allow for the tight ligation. The L5 and L6 spinal nerves were tightly ligated distal to the dorsal root ganglion. The incision was closed, and the animals were allowed to recover for 5 days.
Sham control rats underwent the same operation and handling as the experimental animals, but without SNL.
Prior to initiating drug delivery, baseline behavioural testing data is obtained. At selected times after infusion of the Test or Control Article behavioural data can then be collected again.
The assessment of tactile allodynia consisted of measuring the withdrawal threshold of the paw ipsilateral to the site of nerve injury in response to probing with a series of calibrated von Frey filaments (innocuous stimuli). Animals were acclimated to the suspended wire-mesh cages for 30 min before testing. Each von Frey filament was applied perpendicularly to the plantar surface of the ligated paw of rats for 5 sec. A positive response was indicated by a sharp withdrawal of the paw. For rats, the first testing filament is 4.31. Measurements were taken before and after administration of test articles. […] The protocol was repeated until three changes in behaviour were determined (“up and down” method) (Chaplan et al., J. Neurosci. Methods 53:55-63 (1994)). The 50% paw withdrawal threshold was determined as (10^[Xf+kδ])/10,000, where Xf=the value of the last von Frey filament employed, k=Dixon value for the positive/negative pattern, and δ=the logarithmic difference between stimuli. The cut-off values for rats were no less than 0.2 g and no higher than 15 g (5.18 filament); for mice no less than 0.03 g and no higher than 2.34 g (4.56 filament). A significant drop of the paw withdrawal threshold compared to the pre-treatment baseline is considered tactile allodynia.
Rat SNL tactile allodynia were tested for Compounds 1-4 and 9-12 at 60 minutes compared to baseline and post-SNL. […] FIG. 1 is a plot of the antiallodynic effects of compound 4 (i.p.) tested in SNL L5/L6 rats using von Frey at three different doses, namely 3, 10 and 30 mpk, compared to vehicle alone. […] Rat SNL tactile allodynia were tested at 1, 2 and 4 hours after drug treatment (Table 6).

[1] = Rat Early Pharmacokinetic (EPK) study; assay type: in vivo; conditions: 30 mg/kg PO, 0.5% CMC; for Tmax: male, Sprague-Dawley, blood
Procedure: Male Sprague-Dawley rats were dosed via oral (PO) gavage in the detailed formulation. Blood samples were collected from the animals at 6 timepoints out to 4 hours post-dose. Pharmacokinetic analysis was performed on the LC-MS/MS measured concentrations for each timepoint of each compound.

[2] = target: T1, Nav1.7 channels expressed in HEK cells (Homo sapiens, UniProt Q15858); test: Nav1.7 voltage-clamp electrophysiological assay (enhancement of slow inactivation); assay type: cell-based; conditions: n 5 cells
T1 construct: expressed in transfected cells; host or cells: HEK cells
Procedure: To examine the effects of compounds on enhancement of slow inactivation of Nav1.7 and Nav1.8 channels expressed in HEK cells the culture media was replaced with an extracellular solution containing (in mM): 137 NaCl, 4 KCl, 1.8 CaCl2, 1 MgCl2, 10 HEPES, 10 glucose, pH adjusted to 7.4 with NaOH. The intracellular solution contained (in mM): 130 KCl, 1 MgCl2, 5 EGTA, 10 HEPES, 5 K2ATP, adjusted to pH 7.3 with KOH. Whole-cell recordings, preparation and application of test compounds were performed in a similar manner to the Cav3.2 electrophysiological assays. Voltage protocols were applied to quantify the effects of test compounds to enhance slow inactivation for Nav1.7 and Nav1.8.

T1 sequence (Q15858 whole entry): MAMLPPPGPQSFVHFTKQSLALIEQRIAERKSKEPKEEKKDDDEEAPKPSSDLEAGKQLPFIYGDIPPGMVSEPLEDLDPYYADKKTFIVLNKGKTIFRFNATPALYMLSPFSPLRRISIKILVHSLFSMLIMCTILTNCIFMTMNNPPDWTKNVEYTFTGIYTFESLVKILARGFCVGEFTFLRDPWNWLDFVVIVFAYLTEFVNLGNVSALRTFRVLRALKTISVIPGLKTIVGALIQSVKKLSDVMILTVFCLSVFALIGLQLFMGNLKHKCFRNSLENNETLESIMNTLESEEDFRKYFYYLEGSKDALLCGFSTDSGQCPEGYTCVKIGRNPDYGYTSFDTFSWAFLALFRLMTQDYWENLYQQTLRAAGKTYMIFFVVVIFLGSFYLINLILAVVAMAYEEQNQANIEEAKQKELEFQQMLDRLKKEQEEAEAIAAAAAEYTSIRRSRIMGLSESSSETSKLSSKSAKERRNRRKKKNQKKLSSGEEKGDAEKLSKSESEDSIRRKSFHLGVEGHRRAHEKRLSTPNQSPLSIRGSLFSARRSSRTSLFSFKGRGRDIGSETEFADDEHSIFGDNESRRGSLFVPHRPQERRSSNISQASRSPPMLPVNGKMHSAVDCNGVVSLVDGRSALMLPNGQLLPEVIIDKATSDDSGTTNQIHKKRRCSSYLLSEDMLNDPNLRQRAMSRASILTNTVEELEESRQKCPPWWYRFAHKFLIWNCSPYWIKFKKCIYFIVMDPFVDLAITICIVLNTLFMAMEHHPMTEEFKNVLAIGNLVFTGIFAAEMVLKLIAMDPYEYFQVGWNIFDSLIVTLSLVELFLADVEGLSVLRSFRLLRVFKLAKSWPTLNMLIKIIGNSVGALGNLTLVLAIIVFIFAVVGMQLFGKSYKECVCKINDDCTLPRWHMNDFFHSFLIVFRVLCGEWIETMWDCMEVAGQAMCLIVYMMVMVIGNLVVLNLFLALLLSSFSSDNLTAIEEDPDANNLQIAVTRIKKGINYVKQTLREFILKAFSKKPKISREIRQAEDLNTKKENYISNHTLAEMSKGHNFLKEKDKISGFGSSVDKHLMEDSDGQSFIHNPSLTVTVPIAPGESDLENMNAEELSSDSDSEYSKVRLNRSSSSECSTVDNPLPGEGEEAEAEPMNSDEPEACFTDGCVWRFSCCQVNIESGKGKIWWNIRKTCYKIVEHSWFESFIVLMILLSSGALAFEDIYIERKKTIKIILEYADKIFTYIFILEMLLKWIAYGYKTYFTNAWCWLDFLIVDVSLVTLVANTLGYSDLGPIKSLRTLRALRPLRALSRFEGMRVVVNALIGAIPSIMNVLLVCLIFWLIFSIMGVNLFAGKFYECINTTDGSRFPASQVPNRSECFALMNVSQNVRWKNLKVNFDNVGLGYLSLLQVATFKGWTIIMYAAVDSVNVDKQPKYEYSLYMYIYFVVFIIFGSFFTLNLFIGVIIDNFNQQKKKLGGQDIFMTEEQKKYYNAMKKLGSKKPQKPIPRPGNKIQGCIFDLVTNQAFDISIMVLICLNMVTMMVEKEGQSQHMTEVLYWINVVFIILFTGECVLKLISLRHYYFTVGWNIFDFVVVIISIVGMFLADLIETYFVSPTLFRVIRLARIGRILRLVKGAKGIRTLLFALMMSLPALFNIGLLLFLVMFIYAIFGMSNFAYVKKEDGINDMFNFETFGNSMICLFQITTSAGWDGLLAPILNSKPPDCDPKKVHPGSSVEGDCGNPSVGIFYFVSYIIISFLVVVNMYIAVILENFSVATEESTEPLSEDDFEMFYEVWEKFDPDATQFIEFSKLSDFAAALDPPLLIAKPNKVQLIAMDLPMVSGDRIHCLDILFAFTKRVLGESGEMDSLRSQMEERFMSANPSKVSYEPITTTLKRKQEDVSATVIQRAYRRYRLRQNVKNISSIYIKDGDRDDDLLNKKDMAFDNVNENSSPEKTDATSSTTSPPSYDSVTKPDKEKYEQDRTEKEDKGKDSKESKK

Structure (SMILES) | Rat SNL tactile allodynia, anti-allodynia (statement) (SNL L5/L6 rats) | Dose Normalized AUC [1] | Dose Normalized Cmax [1] | Tmax [1] | Rat SNL Tactile Allodynia (% Antiallodynia) (SNL L5/L6 rats; 1 hour after drug treatment) | Rat SNL Tactile Allodynia (% Antiallodynia) (SNL L5/L6 rats; 2 hours after drug treatment) | Rat SNL Tactile Allodynia (% Antiallodynia) (SNL L5/L6 rats; 4 hours after drug treatment) | Fraction current remaining ([2]; concentration tested 10 μM) | Fraction current remaining ([2]; concentration tested 100 μM)
O=C1CN(C(=O)C(c2ccc(Cl)cc2)c2ccc(Cl)cc2)CCN1 [Compound 13, 4-(2,2-bis(4-chlorophenyl)acetyl)piperazin-2-one] | significant anti-allodynia |  |  |  |  |  |  |  | 
O=C1CN(C(=O)NC(c2ccccc2)c2ccccc2)CCN1 [Compound 1, N-benzhydryl-3-oxopiperazine-1-carboxamide] | significant anti-allodynia | 993 nM·h | 333 nM | 102 min | 10% | 19% | 26% |  | 
O=C1CN(C(=O)C(c2ccccc2)c2ccccc2)CCN1 [Compound 7, 4-(2,2-diphenylacetyl)piperazin-2-one] |  | 1087 nM·h | 730 nM | 30 min | 10% | 9% | 14% |  | 
CC1(C)C(=O)NCCN1C(=O)CC(c1ccc(F)cc1)c1ccc(F)cc1 [Compound 15, 4-(3,3-bis(4-fluorophenyl)propanoyl)-3,3-dimethylpiperazin-2-one] |  |  |  |  | 11% | 8% | 15% |  | 
O=C1CN(C(=O)C[S+]([O-])C(c2ccccc2)c2ccccc2)CCN1 (centres unmarked) [Compound 2, 4-(2-(benzhydrylsulfinyl)acetyl)piperazin-2-one] |  | 283 nM·h | 182 nM | 30 min |  |  |  |  | 
O=C1CN(C(=O)CC(c2ccc(F)cc2)c2ccc(F)cc2)CCN1 [Compound 9, 4-(3,3-bis(4-fluorophenyl)propanoyl)piperazin-2-one] | significant anti-allodynia |  |  |  | 7% | 10% | 7% | 0.93 | 0.86
O=C1CN(C(=O)C=C(c2ccccc2)c2ccccc2)CCN1 [Compound 8, 4-(3,3-diphenylacryloyl)piperazin-2-one] |  | 185 nM·h | 132 nM | 40.2 min | 17% | 24% | 17% |  | 
